Measured values: publication PMC9076199 (RSC Advances, 2019)

Tests used:
[1] = target: T1, human carboxylesterase 2 (CES2) (Homo sapiens, UniProt O00748); assay: Inhibition of CES2-mediated FD; assay type: biochemical; details: for selectivity for CES2 over CES1 (in words): CES2 versus CES1 IC50
T1 sequence (O00748 27-559): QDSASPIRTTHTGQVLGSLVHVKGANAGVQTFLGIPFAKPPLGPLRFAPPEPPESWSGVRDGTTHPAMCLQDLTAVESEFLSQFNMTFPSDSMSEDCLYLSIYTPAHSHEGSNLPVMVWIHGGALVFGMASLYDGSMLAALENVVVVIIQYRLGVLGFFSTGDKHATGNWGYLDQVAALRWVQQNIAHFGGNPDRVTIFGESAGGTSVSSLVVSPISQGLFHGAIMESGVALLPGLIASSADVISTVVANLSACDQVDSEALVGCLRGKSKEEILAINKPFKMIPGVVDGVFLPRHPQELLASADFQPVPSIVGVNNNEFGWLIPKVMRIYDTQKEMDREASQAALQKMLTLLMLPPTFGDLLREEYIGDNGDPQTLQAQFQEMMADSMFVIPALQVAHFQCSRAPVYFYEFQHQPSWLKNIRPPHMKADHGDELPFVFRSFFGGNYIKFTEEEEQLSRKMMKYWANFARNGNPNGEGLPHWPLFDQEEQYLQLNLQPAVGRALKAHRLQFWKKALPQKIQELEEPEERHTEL

[2] = target: T2, human carboxylesterase 1 (CES1) (Homo sapiens, UniProt P23141); assay: Inhibition of CES1-mediated DME; assay type: biochemical
T2 sequence (P23141 18-567): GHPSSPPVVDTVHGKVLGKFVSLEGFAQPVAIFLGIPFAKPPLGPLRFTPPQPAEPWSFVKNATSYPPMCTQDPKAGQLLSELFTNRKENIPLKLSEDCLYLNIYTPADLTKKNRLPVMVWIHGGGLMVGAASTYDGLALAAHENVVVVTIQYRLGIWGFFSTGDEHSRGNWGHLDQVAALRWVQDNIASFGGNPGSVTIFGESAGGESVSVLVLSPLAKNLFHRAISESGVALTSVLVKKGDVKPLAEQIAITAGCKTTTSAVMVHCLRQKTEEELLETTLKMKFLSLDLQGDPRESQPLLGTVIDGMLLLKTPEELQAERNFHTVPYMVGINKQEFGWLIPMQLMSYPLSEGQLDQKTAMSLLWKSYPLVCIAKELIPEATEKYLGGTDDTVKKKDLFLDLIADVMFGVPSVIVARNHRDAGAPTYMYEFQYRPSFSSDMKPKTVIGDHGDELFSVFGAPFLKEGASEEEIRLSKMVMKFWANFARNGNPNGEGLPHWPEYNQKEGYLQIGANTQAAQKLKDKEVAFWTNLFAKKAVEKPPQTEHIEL

## Cc1[nH]c2ccccc2c1C(c1cccc(Br)c1)c1c(C)[nH]c2ccccc12 [4l]
[1]
  IC50: 3170 ± 810 nM

## Cc1[nH]c2ccccc2c1C(c1ccc(Br)cc1)c1c(C)[nH]c2ccccc12 [4m]
[1]
  IC50: 1210 ± 280 nM

## COc1cccc(C(c2c(C)[nH]c3ccccc23)c2c(C)[nH]c3ccccc23)c1 [4f]
[1]
  IC50: 1280 ± 240 nM

## Cc1[nH]c2ccccc2c1C(c1ccccc1Cl)c1c(C)[nH]c2ccccc12 [4h]
[1]
  IC50: 570 ± 86 nM

## Cc1[nH]c2ccccc2c1C(c1ccc([N+](=O)[O-])cc1)c1c(C)[nH]c2ccccc12 [4p]
[1]
  IC50: 1220 ± 200 nM

## Cc1[nH]c2ccccc2c1C(c1cccc(Cl)c1)c1c(C)[nH]c2ccccc12 [4i]
[1]
  IC50: 1230 ± 370 nM

## Cc1[nH]c2ccccc2c1C(c1ccc(Cl)cc1)c1c(C)[nH]c2ccccc12 [4j]
[1]
  IC50: 840 ± 230 nM

## COc1ccccc1C(c1c(C)[nH]c2ccccc12)c1c(C)[nH]c2ccccc12 [4e]
[1]
  IC50: 200 ± 44 nM

## Cc1cccc(C(c2c(C)[nH]c3ccccc23)c2c(C)[nH]c3ccccc23)c1 [4c]
[1]
  IC50: 340 ± 91 nM

## COc1ccc(C(c2c(C)[nH]c3ccccc23)c2c(C)[nH]c3ccccc23)cc1 [4g]
[2]
  IC50: 2900 ± 240 nM
[1]
  IC50: 150 ± 32 nM
  selectivity for CES2 over CES1 (in words): good selectivity over CES1

## Cc1[nH]c2ccccc2c1C(c1cccc([N+](=O)[O-])c1)c1c(C)[nH]c2ccccc12 [4o]
[1]
  IC50: 350 ± 110 nM

## Cc1[nH]c2ccccc2c1C(c1ccccc1Br)c1c(C)[nH]c2ccccc12 [4k]
[1]
  IC50: 350 ± 91 nM

## Cc1[nH]c2ccccc2c1C(c1ccccc1[N+](=O)[O-])c1c(C)[nH]c2ccccc12 [4n]
[2]
  IC50: 3680 ± 430 nM
[1]
  IC50: 190 ± 45 nM
  selectivity for CES2 over CES1 (in words): good selectivity over CES1

## Cc1ccccc1C(c1c(C)[nH]c2ccccc12)c1c(C)[nH]c2ccccc12 [4b]
[1]
  IC50: 560 ± 160 nM

## Cc1ccc(C(c2c(C)[nH]c3ccccc23)c2c(C)[nH]c3ccccc23)cc1 [4d]
[1]
  IC50: 280 ± 27 nM
